Each structure is given as a SMILES string.

The target of this experiment is T1, MAGL (Homo sapiens, UniProt Q99685).
T1 sequence (Q99685 1-303): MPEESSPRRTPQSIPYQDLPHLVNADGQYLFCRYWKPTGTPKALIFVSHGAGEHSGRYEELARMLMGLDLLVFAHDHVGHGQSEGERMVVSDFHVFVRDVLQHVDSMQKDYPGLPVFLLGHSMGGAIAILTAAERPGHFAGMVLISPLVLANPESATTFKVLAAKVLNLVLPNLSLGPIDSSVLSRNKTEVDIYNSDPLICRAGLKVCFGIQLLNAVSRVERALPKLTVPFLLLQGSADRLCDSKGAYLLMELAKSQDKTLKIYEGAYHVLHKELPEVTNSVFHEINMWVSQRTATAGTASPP
Put plainly: 2-AG assay: MAGL inhibitory activity by hydrolysis of 2-arachidonoylglycerol to arachidonic acid, followed by mass spectrometry. To be noted: 8 μM 2-arachidonoylglycerol, 15 min preincubation and 30 min reaction at RT, arachidonic acid/d8-arachidonic acid ratio by MS. The experiment is classed as biochemical.
Turning to `O=C1CO[C@H]2CCN(C(=O)N3CC(c4ccc(Oc5cncc(Cl)c5)cc4)C3)C[C@H]2N1` [Example 9, (+)-(4aR,8aS)-6-[3-[4-[(5-Chloro-3-pyridyl)oxy]phenyl]azetidine-1-carbonyl]-4,4a,5,7,8,8a-hexahydropyrido[4,3-b][1,4]oxazin-3-one], the 50% inhibitory concentration (IC50) was determined as 0.9 nM.
As for `Cc1ncccc1Oc1ccc(C2CN(C(=O)N3CC[C@@H]4OCC(=O)N[C@@H]4C3)C2)cc1` [Example 4, (4aR,8aS)-6-[3-[4-[(2-Methyl-3-pyridyl)oxy]phenyl]azetidine-1-carbonyl]-4,4a,5,7,8,8a-hexahydropyrido[4,3-b][1,4]oxazin-3-one], the IC50 worked out at 2.5 nM.
Then `O=C1CO[C@H]2CCN(C(=O)N3CC(c4ccc(Oc5nccc(C(F)(F)F)n5)cc4)C3)C[C@H]2N1` [Example 14, (+)-(4aR,8aS)-6-[3-[4-[4-(Trifluoromethyl)pyrimidin-2-yl]oxyphenyl]azetidine-1-carbonyl]-4,4a,5,7,8,8a-hexahydropyrido[4,3-b][1,4]oxazin-3-one], with 13.4 nM; and `CC(C)(C)Cc1nc(-c2ccc(C3CN(C(=O)N4CC[C@@H]5OCC(=O)N[C@@H]5C4)C3)cc2)no1` [Example 37, (4aR,8aS)-6-[3-[4-[5-(2,2-Dimethylpropyl)-1,2,4-oxadiazol-3-yl]phenyl]azetidine-1-carbonyl]-4,4a,5,7,8,8a-hexahydropyrido[4,3-b][1,4]oxazin-3-one], with 2.4 nM.
On to `Cc1ccc(C)c(Oc2ccc(C3CN(C(=O)N4CC[C@@H]5OCC(=O)N[C@@H]5C4)C3)cc2)n1` [Example 30, (4aR,8aS)-6-[3-[4-[(3,6-Dimethyl-2-pyridyl)oxy]phenyl]azetidine-1-carbonyl]-4,4a,5,7,8,8a-hexahydropyrido[4,3-b][1,4]oxazin-3-one], for which the IC50 came out at 0.7 nM.
To `CC(C)(C)Cn1ccc(-c2ccc(C3CN(C(=O)N4CC[C@@H]5OCC(=O)N[C@@H]5C4)C3)cc2)n1` [Example 32b, (4aR,8aS)-6-[3-[4-[1-(2,2-Dimethylpropyl)pyrazol-3-yl]phenyl]azetidine-1-carbonyl]-4,4a,5,7,8,8a-hexahydropyrido[4,3-b][1,4]oxazin-3-one] belongs 6.5 nM.

These data come from patent publication US11814375B2, “Heterocyclic compounds” (Hoffmann-La Roche Inc., priority 2019, dated 2023).
